# Entries after “also recorded” stand apart in the source; their conditions may differ. Read-outs that look alike come from different tables or passages of the source.
# Experiments:
# MCF7 cells = test: MTT antiproliferation assay, MCF7 cells; assay type: cell-based; details: Homo sapiens, breast cancer cell line, 48 h
# Description: (§1) Due to their acceptable inhibition rates (more than 50%) at the concentration of 50 nM, compounds H34, H42, H48, H50, and H52 were selected to evaluate the proliferation inhibition activity on several cancer cells, including BRCA1 mutant tumour cells (MX-1) and BRCA1 wild type tumour cells (MCF7 and A549).
# (§2) The MTT assay was performed to detect the sensitivity of cells to anticancer drugs in vitro. The human A549, MCF7, and U87 tumour cells, as well as human BRCA mutant tumour cells (MX-1), were tested in this study. The cell culture was carried out in accordance with routine operations or instructions. Briefly, 5,000 cells were seeded in each well of a 96-well plate. After cell attachment to the bottom of the well, different concentrations of tested compounds were added into designated wells. After 48 h of incubation, 20 µL of MTT solution (5 mg/mL) were added to each well for cell staining. After 4 h, the media were removed and 150 µL of DMSO were added to each well. Finally, the absorbance was determined at 570 nm using a multifunctional microplate reader (TECAN).
# [1] = tested on: MX-1 (BRCA1 mutant tumour cells); test: MTT antiproliferation assay, MX-1 cells; assay type: cell-based; details: Homo sapiens, MX1, breast cancer cell line, 48 h
# Description: as §1, §2
# PARP-2 = PARP-2 (Homo sapiens, UniProt Q9UGN5); test: PARP-2 enzyme inhibition (IC50); assay type: biochemical
# Chain of PARP-2 (Q9UGN5 whole entry): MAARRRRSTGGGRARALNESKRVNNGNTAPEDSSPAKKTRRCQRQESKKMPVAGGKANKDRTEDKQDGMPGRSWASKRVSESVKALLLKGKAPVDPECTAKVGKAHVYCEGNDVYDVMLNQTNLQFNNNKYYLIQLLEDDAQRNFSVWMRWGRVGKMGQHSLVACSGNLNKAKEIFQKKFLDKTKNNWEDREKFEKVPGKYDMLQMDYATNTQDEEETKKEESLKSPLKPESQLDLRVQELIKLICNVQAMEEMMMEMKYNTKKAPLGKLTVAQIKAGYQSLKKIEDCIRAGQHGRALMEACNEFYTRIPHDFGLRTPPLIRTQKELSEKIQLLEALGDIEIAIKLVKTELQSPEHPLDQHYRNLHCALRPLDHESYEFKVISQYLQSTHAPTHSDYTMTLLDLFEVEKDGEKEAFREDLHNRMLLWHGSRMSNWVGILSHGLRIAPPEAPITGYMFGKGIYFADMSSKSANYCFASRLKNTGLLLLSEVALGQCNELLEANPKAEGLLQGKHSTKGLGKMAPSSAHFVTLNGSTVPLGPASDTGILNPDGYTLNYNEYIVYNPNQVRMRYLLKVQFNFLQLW
# From the text: PARP-2 is the closest homolog of PARP-1, which also resides in the nucleus and functions similarly to PARP-1.
# PARP-1 = target: T1, PARP-1 (Homo sapiens, UniProt P09874); test: PARP-1 enzyme inhibition assay (BPS Bioscience PARP Colorimetric Assay Kit); assay type: biochemical; details: for inhibition at 0.05 µM: compound concentration 50 nM, three independent tests
# T1 construct: purchased BPS Bioscience 80580
# T1 sequence (P09874 whole entry): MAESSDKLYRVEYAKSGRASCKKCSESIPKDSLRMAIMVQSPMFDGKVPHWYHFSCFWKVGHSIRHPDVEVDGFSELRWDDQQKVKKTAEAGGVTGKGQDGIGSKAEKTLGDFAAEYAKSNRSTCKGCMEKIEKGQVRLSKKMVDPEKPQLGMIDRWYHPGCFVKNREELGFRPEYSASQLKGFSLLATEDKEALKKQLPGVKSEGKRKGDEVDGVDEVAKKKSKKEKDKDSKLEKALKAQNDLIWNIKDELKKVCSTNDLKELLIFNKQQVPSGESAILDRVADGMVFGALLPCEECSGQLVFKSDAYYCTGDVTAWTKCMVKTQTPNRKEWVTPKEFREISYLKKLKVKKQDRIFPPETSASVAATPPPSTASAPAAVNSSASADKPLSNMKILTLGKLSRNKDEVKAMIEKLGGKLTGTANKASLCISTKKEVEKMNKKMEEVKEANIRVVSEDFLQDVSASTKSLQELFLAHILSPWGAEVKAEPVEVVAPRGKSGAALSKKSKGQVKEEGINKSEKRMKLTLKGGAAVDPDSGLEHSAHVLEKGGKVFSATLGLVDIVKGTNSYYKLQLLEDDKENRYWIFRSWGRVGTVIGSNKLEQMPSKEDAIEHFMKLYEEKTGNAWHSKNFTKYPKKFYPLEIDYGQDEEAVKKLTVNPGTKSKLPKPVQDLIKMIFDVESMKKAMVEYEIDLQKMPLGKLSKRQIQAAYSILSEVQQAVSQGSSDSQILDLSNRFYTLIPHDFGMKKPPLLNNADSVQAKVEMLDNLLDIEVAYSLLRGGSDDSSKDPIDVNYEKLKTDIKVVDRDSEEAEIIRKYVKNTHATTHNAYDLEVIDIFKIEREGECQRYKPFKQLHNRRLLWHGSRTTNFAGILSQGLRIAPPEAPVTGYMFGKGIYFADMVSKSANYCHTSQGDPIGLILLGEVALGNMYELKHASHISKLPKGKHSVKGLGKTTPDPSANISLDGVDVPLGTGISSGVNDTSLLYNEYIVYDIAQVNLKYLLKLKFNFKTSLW
# Description: All target compounds were evaluated for PARP-1 enzyme inhibition activity at the concentration of 50 nM determined by previous pre-experiments.
# The ability of the compounds to inhibit PARP-1 enzyme activity was assessed using BPS Bioscience's PARP Colorimetric Assay Kit (BPS Bioscience, Catalog # 80580). PARP-1 is known to catalyse the NAD-dependent addition of poly(ADP-ribose) to histones. The PARP-1 assay kit comes in a convenient 96-well format, with purified PARP-1 enzyme, histone mixture, activated DNA, and PARP-1 assay buffer. The key to the PARP-1 Colorimetric Activity Assay is the biotinylated substrate. With this kit, only three simple steps are required for PARP-1 reactions. First, histone proteins are coated on a 96-well plate. Next, the PARP-1 biotinylated substrate is incubated with an assay buffer that contains the PARP-1 enzyme. Finally, the plate is treated with streptavidin-HRP followed by the addition of the colorimetric HRP substrate to produce colour that can then be measured using a UV/Vis spectrophotometer microplate reader. IC50 values were calculated using GraphPad Prism5 software.
# A549 cells = test: MTT antiproliferation assay, A549 cells; assay type: cell-based; details: Homo sapiens, lung cancer cell line, 48 h
# Description: as §1, §2
# [2] = Brain/plasma pharmacokinetic study in vivo; details: ICR mice; for concentration at 5 min / Kp at 5 min: 5 min after tail vein injection of 1.5 mg/kg
# Description: Further, the brain permeability of representative compounds was evaluated in ICR mice. After tail vein injection of a 1.5 mg/kg dose, the concentrations of the compounds in the brain and plasma were measured after 5 min and 60 min of administration, and the brain/plasma (B/P) ratio was calculated. […] On the contrary, compounds H42 and H52 performed high B/P ratios, which were consistent with our initial expectations. Among them, the B/P ratio of H42 reached balance rapidly in vivo and maintained above 3, while the proportion of H52 in the brain increased gradually and reached 4.41 at 60 min.
# All animal experiments were complied with the ARRIVE guidelines and were carried out in accordance with the U.K. Animals Act, 1986 and associated guidelines. The ICR mice were used in plasma–brain distribution assay of compounds. After tail vein injection of a 1.5 mg/kg dose, the concentrations of the compounds in the brain and plasma were measured after 5 min and 60 min of administration, and the brain/plasma (B/P) ratio was calculated. The samples of plasma and brain tissue were prepared as previously reported. An established LC-MS/MS method was used for determining the concentration of representative compounds in plasma and brain tissue.
# [3] = tested on: MDCK cells monolayer model; details: dog, 3 h, 10 µM
# in vitro = details: dog, MDCK
# [4] = cited from earlier work
# glioblastoma (U87) cells = test: Antiproliferation in combination with TMZ, U87 cells; assay type: cell-based, human; details: combination with Temozolomide
# Description: as §2
# [5] = mouse, brain, intravenous, read-out: Brain
# [6] = mouse, brain, intravenous, 60 min after tail vein injection of 1.5 mg/kg, read-out: Brain
# [7] = mouse, brain/plasma, intravenous, read-out: B/P ratio
# [8] = mouse, brain/plasma, intravenous, 60 min after tail vein injection of 1.5 mg/kg, read-out: B/P ratio
# [9] = mouse, plasma, intravenous, read-out: Plasma
# [10] = mouse, plasma, intravenous, 60 min after tail vein injection of 1.5 mg/kg, read-out: Plasma
SMILES,IC50 (MCF7 cells) [µM],IC50 [1] [µM],IC50 (PARP-2) [µM],IC50 (PARP-1) [µM],inhibition at 0.05 µM (PARP-1) [%],IC50 (A549 cells) [µM],"concentration at 5 min [2, 5] [ng/g]","concentration at 60 min [2, 6] [ng/g]","Kp at 5 min [2, 7]","Kp at 60 min [2, 8]","concentration at 5 min [2, 9] [ng/mL]","concentration at 60 min [2, 10] [ng/mL]",Capical [3] [µg/mL],other results
Cn1ncnc1[C@H]1c2n[nH]c(=O)c3cc(F)cc(c23)N[C@@H]1c1ccc(F)cc1 [Talazoparib],,,,,,,,,,,,,,CNS penetration [4]: not CNS penetrant
O=C(c1cc(Cc2n[nH]c(=O)c3ccccc23)ccc1F)N1CCN(C(=O)C2CC2)CC1 [Olaparib],,,,,,,,,,,,,,CNS penetration [4]: not CNS penetrant
"COc1ccc(C2=Nc3ccccc3C(=O)NC2)cc1 [Compound H6, 2-(4-Methoxyphenyl)-3,4-dihydro-5H-benzo[e][1,4]diazepin-5-one]",,,,,31.9 ± 1.2,,,,,,,,,
"O=C1NCC(c2ccc(F)cc2F)=Nc2ccccc21 [Compound H14, 2-(2,4-Difluorophenyl)-3,4-dihydro-5H-benzo[e][1,4]diazepin-5-one]",,,,,36.1 ± 3.6,,,,,,,,,
"O=C1NCC(c2ccc3ccccc3c2)=Nc2ccccc21 [Compound H18, 2-(Naphthalen-2-yl)-3,4-dihydro-5H-benzo[e][1,4]diazepin-5-one]",,,,,35.9 ± 2.2,,,,,,,,,
"CC1NC(=O)c2ccccc2N=C1c1ccc(Br)cc1 (stereo not drawn) [Compound H30, 2-(4-Bromophenyl)-3-methyl-3,4-dihydro-5H-benzo[e][1,4]diazepin-5-one]",,,,,39.8 ± 4.2,,,,,,,,,

# Second part, led by results:
IC50 (MCF7 cells) [µM],IC50 [1] [µM],IC50 (PARP-2) [µM],IC50 (PARP-1) [µM],inhibition at 0.05 µM (PARP-1) [%],IC50 (A549 cells) [µM],"concentration at 5 min [2, 5] [ng/g]","concentration at 60 min [2, 6] [ng/g]","Kp at 5 min [2, 7]","Kp at 60 min [2, 8]","concentration at 5 min [2, 9] [ng/mL]","concentration at 60 min [2, 10] [ng/mL]",Capical [3] [µg/mL],SMILES,other results
125 ± 13.2,130 ± 10.7,0.0451,0.0463,> 50,> 200,,,,,,,,"COc1ccc(-c2ccc(C3CNC(=O)c4ccccc4N3)cc2)cc1 (stereo not drawn) [Compound H50, 2-(4′-Methoxy-[1,1′-biphenyl]-4-yl)-1,2,3,4-tetrahydro-5H-benzo[e][1,4]diazepin-5-one]",
44.3 ± 5.2,40.3 ± 3.3,0.0512,0.0414,> 50,121 ± 16.2,301 ± 52.5,9.67 ± 8.75,0.1 ± 0.01,0.01 ± 0.01,3120 ± 220,1050 ± 70.3,1.65 ± 0.32,"Cc1n[nH]c(C)c1-c1ccc(C2=Nc3ccccc3C(=O)NC2)cc1 [Compound H34, 2-(4-(3,5-Dimethyl-1H-pyrazol-4-yl)phenyl)-3,4-dihydro-5H-benzo[e][1,4]diazepin-5-one]","Cbasolateral [3]: 0.31 ± 0.08 µg/mL; Papp A→B at 3 h, 10 µM (in vitro): 15.7 ± 1.32 ×10⁻⁶ cm/s"
20.2 ± 3.1,5.5 ± 2.2,,,98.2 ± 2.7,34.9 ± 5.2,170 ± 48.5,13.9 ± 3.78,0.14 ± 0.04,0.1 ± 0.06,1180 ± 122,161 ± 60.5,3.39 ± 0.82,"CNCc1ccc(-c2[nH]c3cc(F)cc4c3c2CCNC4=O)cc1 [Rucaparib, reference compound]",CNS penetration [4]: could not pass through the blood-brain barrier; also recorded: not CNS penetrant
39.4 ± 4.2,31.4 ± 2.8,0.0471,0.0403,> 50,162 ± 18.4,1820 ± 324,51.8 ± 13.6,3.28 ± 0.28,3.58 ± 0.53,555 ± 104,15.1 ± 5.44,1.62 ± 0.37,"COc1ccc(-c2ccc(C3=Nc4ccccc4C(=O)NC3)cc2)cc1 [Compound H42, 2-(4′-Methoxy-[1,1′-biphenyl]-4-yl)-3,4-dihydro-5H-benzo[e][1,4]diazepin-5-one]","Sensitisation effect in combination with TMZ (glioblastoma (U87) cells): significant sensitisation effects; Kp ([2]; mouse, brain/plasma, intravenous, maintained over 5 and 60 min, 1.5 mg/kg tail vein, read-out: B/P ratio): > 3; Cbasolateral [3]: 0.33 ± 0.05 µg/mL; Papp A→B at 3 h, 10 µM (in vitro): 16.1 ± 1.08 ×10⁻⁶ cm/s"
35.7 ± 2.9,30.7 ± 4,0.0407,0.0378,> 50,176 ± 23.1,1050 ± 153,10.1 ± 0.87,0.4 ± 0.05,0.07 ± 0.02,2650 ± 264,157 ± 32.3,2.43 ± 0.42,"Nc1ccc(-c2ccc(C3CNC(=O)c4ccccc4N3)cc2)cc1 (stereo not drawn) [Compound H48, 2-(4′-Amino-[1,1′-biphenyl]-4-yl)-1,2,3,4-tetrahydro-5H-benzo[e][1,4]diazepin-5-one]","Cbasolateral [3]: 0.23 ± 0.06 µg/mL; Papp A→B at 3 h, 10 µM (in vitro): 11.7 ± 0.51 ×10⁻⁶ cm/s"
37.9 ± 3.5,24.6 ± 3.7,0.0396,0.0302,> 50,157 ± 15.2,1570 ± 264,2630 ± 118,2.18 ± 0.27,4.41,719 ± 39.9,597 ± 25,1.65 ± 0.05,"O=C1NCC(c2ccc(-c3ccc(C(F)(F)F)cc3)cc2)Nc2ccccc21 (stereo not drawn) [Compound H52, 2-(4′-(Trifluoromethyl)-[1,1′-biphenyl]-4-yl)-1,2,3,4-tetrahydro-5H-benzo[e][1,4]diazepin-5-one]","Sensitisation effect in combination with TMZ (glioblastoma (U87) cells): significant sensitisation effects; B/P ratio ([2]; 60 min after tail vein injection of 1.5 mg/kg, 1.5 mg/kg): 4.41 ± 0.07 fold; Cbasolateral [3]: 0.45 ± 0.07 µg/mL; Papp A→B at 3 h, 10 µM (in vitro): 19.7 ± 0.92 ×10⁻⁶ cm/s"
,,,,34.6 ± 6.8,,,,,,,,,"CC(=O)N1CCN(c2ccc(C3CNC(=O)c4ccccc4N3)cc2)CC1 (stereo not drawn) [Compound H54, 2-(4-(4-Acetylpiperazin-1-yl)phenyl)-1,2,3,4-tetrahydro-5H-benzo[e][1,4]diazepin-5-one]",
,,,,46.5 ± 3.2,,,,,,,,,"Cn1cc(-c2ccc(C3=Nc4ccccc4C(=O)NC3)cc2)cn1 [Compound H33, 2-(4-(1-Methyl-1H-pyrazol-4-yl)phenyl)-3,4-dihydro-5H-benzo[e][1,4]diazepin-5-one]",

# Reference: publication PMC8942544, “Design and synthesis of benzodiazepines as brain penetrating PARP-1 inhibitors” (Journal of Enzyme Inhibition and Medicinal Chemistry, 2022)
